Results on 11 compounds are retold here after ChEMBL document CHEMBL1201862, “PubChem BioAssay data set” (2004).

Among the test systems are A498; CAKI-1; CCRF-CEM; DU-145; HCT-116; Hs-578T; IGROV-1; LOX IMVI; MCF7; MDA-MB-231; MDA-MB-435; Malme-3M; OVCAR-4; SK-MEL-5; SNB-19; SR; SW-620; UO-31; HCC 2998.
What all share (assay): NCI-60 cell line screen, 48 h

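These data come from cells grown in 96-well plates and exposed to compound for 48 hours at five concentrations. Here, GI50 denotes the concentration required for 50% inhibition of growth.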 Activity calls are given as the source filed them. No stated cut-off is given here; in the data, active = GI50 up to about 1.1 µM and inactive = higher.

For `CCOC(=O)CNC(=O)C(CSCC1C(=O)Nc2ccccc21)NC(=O)CCC(N)C(=O)OCC` (configuration not stated), the GI50 was 3.12 µM (inactive) with A498; 0.745 µM (active) in the assay on CAKI-1; 0.269 µM (active) in the assay on CCRF-CEM; 3.75 µM (inactive) in the assay on DU-145; 0.551 µM (active) with HCT-116; 4.21 µM (inactive) with Hs-578T. In addition, the GI50 is 1.15 µM (inactive) in the assay on IGROV-1; 0.46 µM (active) in the assay on LOX IMVI; 1.07 µM (active) in the assay with MCF7; 1.58 µM (inactive) in the assay on MDA-MB-231; 1.32 µM (inactive) with MDA-MB-435; 1.88 µM (inactive) with Malme-3M. Moreover, the GI50 in the assay with OVCAR-4 is 2.78 µM (inactive); in the assay on SK-MEL-5, 1.6 µM (inactive); with SNB-19 it was 7.46 µM (inactive); with SR, 0.24 µM (active); in the assay with SW-620 it was 1.19 µM (inactive); with UO-31, 1.23 µM (inactive).

Consider `CN1CCC(O)(C(C)(C)C)CC1`, for which the GI50 in the assay on CAKI-1, in the assay with CCRF-CEM, in the assay on DU-145, with HCC 2998, with HCT-116 and in the assay on Hs-578T was > 100 µM (inactive) each time. Further, the GI50 in the assay with IGROV-1, in the assay on LOX IMVI, in the assay on MCF7, in the assay with MDA-MB-231, in the assay on MDA-MB-435 and with Malme-3M was > 100 µM (inactive) each time. Further, the GI50 in the assay on OVCAR-4, with SK-MEL-5, in the assay with SNB-19, with SR, in the assay with SW-620 and in the assay with UO-31 was > 100 µM (inactive) each time.

Consider `FC(F)(F)c1cc(Cl)cnc1N/N=C(/c1ccccc1)c1ccccn1`, for which the GI50 in the assay on CAKI-1 was 3.37 µM (inactive); with CCRF-CEM, 0.492 µM (active); with DU-145 it was 4.46 µM (inactive); in the assay on HCC 2998, 8 µM (inactive); with HCT-116, 3.16 µM (inactive); in the assay with Hs-578T it was 0.422 µM (active). The GI50 with IGROV-1 was 1.92 µM (inactive); in the assay on MCF7 it was 3.13 µM (inactive); with MDA-MB-231 it was 4.09 µM (inactive); in the assay on MDA-MB-435, 4.85 µM (inactive); in the assay on OVCAR-4, 6.67 µM (inactive); in the assay with SK-MEL-5, 3.15 µM (inactive). The GI50 in the assay on SNB-19 is 4.67 µM (inactive); in the assay on SR, 0.708 µM (active); in the assay with SW-620, 3.85 µM (inactive); in the assay on UO-31 it was 2.94 µM (inactive).

On to `O=C(O)C1(Nc2ccc(Cl)cc2)CCCC1`, for which the GI50 was > 100 µM (inactive) in the assay on A498; > 100 µM (inactive) in the assay with CAKI-1; > 100 µM (inactive) in the assay on CCRF-CEM; > 100 µM (inactive) in the assay with DU-145; 76.4 µM (inactive) with HCT-116; > 100 µM (inactive) in the assay on Hs-578T. In addition, the GI50 in the assay on IGROV-1, in the assay with LOX IMVI, in the assay with MCF7, in the assay with MDA-MB-231, in the assay with MDA-MB-435 and in the assay with Malme-3M was > 100 µM (inactive) throughout. The GI50 in the assay on OVCAR-4, with SK-MEL-5, in the assay on SNB-19, with SR, in the assay with SW-620 and in the assay with UO-31 was > 100 µM (inactive) throughout.

`O=C(O)c1ccc(/N=C(\C(=N\c2ccc(C(=O)O)cc2)c2ccccc2)c2ccccc2)cc1`: the GI50 with A498, in the assay with DU-145, with HCC 2998, in the assay with HCT-116, with Hs-578T and in the assay with IGROV-1 was > 100 µM (inactive) each time. The GI50 with LOX IMVI, with MCF7, with MDA-MB-231, in the assay on MDA-MB-435, in the assay with OVCAR-4 and in the assay with SNB-19 was > 100 µM (inactive) throughout. Besides, the GI50 in the assay with SR, in the assay on SW-620 and in the assay on UO-31 was > 100 µM (inactive) in each case.

Turning to `Nc1cc(CO)cc(Nc2c3ccccc3nc3ccccc23)c1`, the GI50 in the assay with A498 was 24.6 µM (inactive); in the assay on CAKI-1, 17.5 µM (inactive); with CCRF-CEM, 6.78 µM (inactive); with DU-145, 27.3 µM (inactive); with HCT-116 it was 15.1 µM (inactive); in the assay on Hs-578T it was 18.3 µM (inactive). In addition, the GI50 in the assay with IGROV-1 was 16.9 µM (inactive); in the assay with LOX IMVI, 16.7 µM (inactive); in the assay with MCF7, 15.5 µM (inactive); in the assay on MDA-MB-231 it was 12.1 µM (inactive); in the assay on MDA-MB-435, 17 µM (inactive); with Malme-3M, 16.5 µM (inactive). Moreover, the GI50 is 16 µM (inactive) with OVCAR-4; 17 µM (inactive) with SK-MEL-5; 53 µM (inactive) in the assay on SR; 12.8 µM (inactive) with SW-620; 18.4 µM (inactive) with UO-31.

In the case of `COc1cc(-c2cc(=O)c3c(OC)c(OC)c(OC)cc3o2)c(OC)c(OC)c1OC`, the GI50 is > 75 µM (inactive) in the assay with CAKI-1; 65.2 µM (inactive) with CCRF-CEM; > 75 µM (inactive) in the assay with DU-145; > 75 µM (inactive) in the assay with HCC 2998; > 75 µM (inactive) with HCT-116; > 75 µM (inactive) in the assay with Hs-578T. For the same compound, the GI50 in the assay on IGROV-1 is > 75 µM (inactive); with LOX IMVI it was 63.5 µM (inactive); with MCF7, > 75 µM (inactive); in the assay on MDA-MB-231, 63.4 µM (inactive); in the assay with MDA-MB-435, > 75 µM (inactive); in the assay with Malme-3M, > 75 µM (inactive). The GI50 in the assay on OVCAR-4 was 41.1 µM (inactive); in the assay with SK-MEL-5 it was 53.7 µM (inactive); in the assay on SNB-19, > 75 µM (inactive); in the assay with SR, 63.1 µM (inactive); in the assay on SW-620, > 75 µM (inactive); in the assay with UO-31, 57.3 µM (inactive).

For `C#CCn1c(=O)c(Cl)cn(/C(=C/C(=O)OCC)C(=O)OCC)c1=O`, the GI50 with A498 is 22.9 µM (inactive); in the assay with CAKI-1, 2.99 µM (inactive); in the assay with CCRF-CEM, 5.2 µM (inactive); in the assay on DU-145, 18.6 µM (inactive); with HCT-116, 4.69 µM (inactive); in the assay on Hs-578T it was 42.9 µM (inactive). Besides, the GI50 is 17.3 µM (inactive) in the assay on IGROV-1; 8.32 µM (inactive) in the assay with LOX IMVI; 8.45 µM (inactive) with MCF7; 18.2 µM (inactive) with MDA-MB-231; 18 µM (inactive) with MDA-MB-435; 3.86 µM (inactive) in the assay with Malme-3M. The GI50 in the assay with OVCAR-4 is 17.2 µM (inactive); in the assay on SK-MEL-5 it was 16.9 µM (inactive); in the assay on SNB-19, 39.8 µM (inactive); with SR, 2.32 µM (inactive); in the assay with SW-620 it was 2.22 µM (inactive); in the assay with UO-31, 3.4 µM (inactive).

With `[O-][n+]1onc2c1CCC(=N\O)/C2=N/Nc1ccccc1`, the GI50 in the assay on A498, in the assay on CAKI-1, with CCRF-CEM, in the assay on DU-145, with HCT-116 and in the assay with Hs-578T was > 100 µM (inactive) in each case. Moreover, the GI50 with IGROV-1, with LOX IMVI, with MCF7, in the assay on MDA-MB-231, with MDA-MB-435 and in the assay on Malme-3M was > 100 µM (inactive) each time. For the same compound, the GI50 in the assay with OVCAR-4, in the assay with SK-MEL-5, with SNB-19, in the assay on SR, in the assay with SW-620 and with UO-31 was > 100 µM (inactive) each time.

`C[C@]12CC/C(=N\OCCN3CCCCC3)C=C1CCC1C2CC[C@@]2(C)C1CC[C@]2(C)O` (some centres not stated): the GI50 with A498 is 3.14 µM (inactive); in the assay on CAKI-1, 6.75 µM (inactive); with CCRF-CEM, 3.2 µM (inactive); in the assay with DU-145 it was 13.2 µM (inactive); in the assay with HCC 2998, 9.27 µM (inactive); in the assay on HCT-116, 7.38 µM (inactive). Moreover, the GI50 is 8.61 µM (inactive) in the assay on Hs-578T; 11.9 µM (inactive) in the assay with IGROV-1; 4.11 µM (inactive) in the assay on LOX IMVI; 4.75 µM (inactive) with MCF7; 11.7 µM (inactive) with MDA-MB-231; 2.3 µM (inactive) in the assay on MDA-MB-435. Moreover, the GI50 in the assay with Malme-3M is 11.2 µM (inactive); in the assay with OVCAR-4, 19.8 µM (inactive); with SK-MEL-5, 16.6 µM (inactive); with SNB-19 it was 11.9 µM (inactive); with SW-620, 5.65 µM (inactive); in the assay with UO-31, 11.1 µM (inactive).

Take `c1ccc(C[N+]23C(CC[C@H]2c2ccccc2)CC[C@H]3c2ccccc2)cc1` (some centres not stated): the GI50 is > 100 µM (inactive) in the assay on A498; > 100 µM (inactive) in the assay on CAKI-1; 27.4 µM (inactive) in the assay on CCRF-CEM; 32.9 µM (inactive) in the assay on DU-145; 28.8 µM (inactive) in the assay with HCT-116; 49.5 µM (inactive) in the assay on Hs-578T. For the same compound, the GI50 was 21.6 µM (inactive) with IGROV-1; 29.2 µM (inactive) in the assay with LOX IMVI; 24.4 µM (inactive) in the assay with MCF7; 34.9 µM (inactive) in the assay with MDA-MB-231; 18.7 µM (inactive) in the assay with MDA-MB-435; 18.2 µM (inactive) in the assay on Malme-3M. For the same compound, the GI50 in the assay on OVCAR-4 is 31 µM (inactive); in the assay with SK-MEL-5, 5.43 µM (inactive); with SNB-19, 29.5 µM (inactive); with SR, 21.4 µM (inactive); with SW-620, 43.4 µM (inactive); with UO-31, > 100 µM (inactive).
